Laboratory results reported in patent US9981968B2, “Substituted pyrrolo[2,3-d]pyrimidines for the treatment of cancer and proliferative disorders” (Northwestern University, priority 2013, dated 2018).

Experiments:
Format in all cases: cell-based
TK-10 = assay: SRB growth assay, TK-10; settings: Homo sapiens, TK-10 (Renal), 48 hours, read-out: Percent viability
Text: (§1) Tested cell lines included, Leukemia: CCRF-CEM, HL-60(TB), MOLT-4, RPMI-8226 and SR; Non-Small Cell Lung: A549/ATCC, EKVX, HOP-62, HOP-92, NCI-H226, NCI-H23, NCI-H322M, NCI-H460 and NCI-H522; Colon: COLO 205, HCC-2998, HCT-116, HCT-15. HT29, KM12 and SW-620; CNS: SF-268, SF-295, SF-539, SNB-19, SNB-75 and U251; Melanoma: LOX IMVI, MALME-3M, M14, MDA-MB-435, SK-MEL-2, SK-MEL-28, SK-MEL-5, UACC-257 and UACC-62; Ovarian: IGR-OV1, OVCAR-3, OVCAR-4, OVCAR-5, OVCAR-8. NCI/ADR-RES and SK-OV-3; Renal: 786-0, A498, ACHN, CAKI-1, RXF 393, SN12C, TK-10 and UO-31; Prostate: DU-145 and PC-3; and Breast: MCF7, MDA-MB-231/ATCC, MDA-MB-468, HS 578T, BT-549 and T-47D.
(§2) The cells were cultured in RPMI1640 media supplemented with 10% Fetal Bovine Serum (FBS), 2 mM glutamine and with 5% CO2 and 37° C. For experiment, 5% of FBS and 50 ug/mL of gentamycin were used. Test articles were 10 μM of NUCL 381-3 or 10 μM NUCL 383-3. The positive control was 10 μM of doxorubicin.
(§3) Cells were plated in 96 well plates. The cells were plated in triplicate. Cells were plated at the densities based on NCI recommendation. Time zero cells (Tz) were fixed the following day with 50% or 80% ice cold Trichloracetic acid (TCA) and washed 5× with water. At 48 hours post addition of treatments, all remaining plates were fixed in 80% ice cold Trichloracetic acid (TCA) and washed 5× with water. After drying, one hundred microliters of 0.4% Sulphorhodamine B (SRB) in 1% acetic acid was added to each plate including the Tzero plate and incubated for 10 minutes at room temperature. After 5 additional washes with 1% acetic acid, plates were allowed to dry. One hundred microliters of Trizma base was added to each well and plates were read at 515 nm.
(§4) Percent of growth was calculated by the following formulas: [Ti/C]×100, where: Tz=absorbance readings for wells at time zero without treatment; C=absorbance readings of untreated cells (without treatment); and Ti=absorbance reading of wells with treatment.

U251 = assay: SRB growth assay, U251; settings: Homo sapiens, U-251, U251 (CNS), 48 hours, read-out: Percent viability
Text: as §1, §2, §3, §4

RPMI-8226 = assay: SRB growth assay, RPMI-8226; settings: Homo sapiens, RPMI-8226 (Leukemia), 48 hours, read-out: Percent viability
Text: as §1, §2, §3, §4

M14 = assay: SRB growth assay, M14; settings: Homo sapiens, M14 (Melanoma), 48 hours, read-out: Percent viability
Text: as §1, §2, §3, §4

MDA-MB-231 = assay: SRB growth assay, MDA-MB-231; settings: Homo sapiens, MDA-MB-231 (Breast), 48 hours, read-out: Percent viability
Text: as §1, §2, §3, §4

A498 = assay: SRB growth assay, A498; settings: Homo sapiens, A498 (Renal), 48 hours, read-out: Percent viability
Text: as §1, §2, §3, §4

HL-60(TB) = assay: SRB growth assay, HL-60(TB); settings: Homo sapiens, HL-60(TB) (Leukemia), 48 hours, read-out: Percent viability
Text: as §1, §2, §3, §4

SK-MEL-28 = assay: SRB growth assay, SK-MEL-28; settings: Homo sapiens, SK-MEL-28 (Melanoma), 48 hours, read-out: Percent viability
Text: as §1, §2, §3, §4

HT29 = assay: SRB growth assay, HT29; settings: Homo sapiens, HT-29, HT29 (Colon), 48 hours, read-out: Percent viability
Text: as §1, §2, §3, §4

UACC-62 = assay: SRB growth assay, UACC-62; settings: Homo sapiens, UACC-62 (Melanoma), 48 hours, read-out: Percent viability
Text: as §1, §2, §3, §4

K-562 = assay: SRB growth assay, K-562; settings: Homo sapiens, K562, K-562 (Leukemia), 48 hours, read-out: Percent viability
Text: as §1, §2, §3, §4

PC-3 = assay: SRB growth assay, PC-3; settings: Homo sapiens, PC-3 (Prostate), 48 hours, read-out: Percent viability
Text: as §1, §2, §3, §4

T-47D = assay: SRB growth assay, T-47D; settings: Homo sapiens, T47D, T-47D (Breast), 48 hours, read-out: Percent viability
Text: as §1, §2, §3, §4

SR = assay: SRB growth assay, SR; settings: Homo sapiens, SR (Leukemia), 48 hours, read-out: Percent viability
Text: as §1, §2, §3, §4

SF-295 = assay: SRB growth assay, SF-295; settings: Homo sapiens, SF-295 (CNS), 48 hours, read-out: Percent viability
Text: as §1, §2, §3, §4

SNB-19 = assay: SRB growth assay, SNB-19; settings: Homo sapiens, SNB-19 (CNS), 48 hours, read-out: Percent viability
Text: as §1, §2, §3, §4

HCT-15 = assay: SRB growth assay, HCT-15; settings: Homo sapiens, HCT-15 (Colon), 48 hours, read-out: Percent viability
Text: as §1, §2, §3, §4

ACHN = assay: SRB growth assay, ACHN; settings: Homo sapiens, ACHN (Renal), 48 hours, read-out: Percent viability
Text: as §1, §2, §3, §4

UO-31 = assay: SRB growth assay, UO-31; settings: Homo sapiens, UO-31 (Renal), 48 hours, read-out: Percent viability
Text: as §1, §2, §3, §4

NCI/ADR-RES = assay: SRB growth assay, NCI/ADR-RES; settings: Homo sapiens, NCI/ADR-RES (Ovarian), 48 hours, read-out: Percent viability
Text: as §1, §2, §3, §4

MALME-3M = assay: SRB growth assay, MALME-3M; settings: Homo sapiens, MALME-3M (Melanoma), 48 hours, read-out: Percent viability
Text: as §1, §2, §3, §4

BT-549 = assay: SRB growth assay, BT-549; settings: Homo sapiens, BT-549 (Breast), 48 hours, read-out: Percent viability
Text: as §1, §2, §3, §4

SK-MEL-2 = assay: SRB growth assay, SK-MEL-2; settings: Homo sapiens, SK-MEL-2 (Melanoma), 48 hours, read-out: Percent viability
Text: as §1, §2, §3, §4

| SMILES | viability at 10 µM (TK-10) [%] | viability at 10 µM (U251) [%] | viability at 10 µM (RPMI-8226) [%] | viability at 10 µM (M14) [%] | viability at 10 µM (MDA-MB-231) [%] | viability at 10 µM (A498) [%] | viability at 10 µM (HL-60(TB)) [%] | viability at 10 µM (SK-MEL-28) [%] | viability at 10 µM (HT29) [%] | viability at 10 µM (UACC-62) [%] | viability at 10 µM (K-562) [%] | viability at 10 µM (PC-3) [%] | viability at 10 µM (T-47D) [%] | viability at 10 µM (SR) [%] | viability at 10 µM (SF-295) [%] | viability at 10 µM (SNB-19) [%] | viability at 10 µM (HCT-15) [%] | viability at 10 µM (ACHN) [%] | viability at 10 µM (UO-31) [%] | viability at 10 µM (NCI/ADR-RES) [%] | further results |
| --- | --- | --- | --- | --- | --- | --- | --- | --- | --- | --- | --- | --- | --- | --- | --- | --- | --- | --- | --- | --- | --- |
| CS(=O)(=O)N1CCC(Cn2cc(C(F)(F)F)c3c(Cl)ncnc32)CC1 [NUCC-0000383] | 73.9 | 2.47 | 100 | 78.5 | 33.9 | 101 | 22.5 | 4.54 | 30.3 | 8.26 | 10.2 | 3.55 | 63.3 | 37 | 56.2 | 21.4 | 38.8 | 77.8 | 3.37 | 99 | viability at 10 µM (MALME-3M): 42.7%; viability at 10 µM (BT-549): 79.2%; viability at 10 µM (SK-MEL-2): 14.7% |
| COc1cccc2c1C(=O)c1c(O)c3c(c(O)c1C2=O)C[C@@](O)(C(=O)CO)C[C@@H]3O[C@H]1C[C@H](N)[C@H](O)[C@H](C)O1 [Doxorubicin, reference compound] | 35.9 | 22 | 44.2 | 25.5 | 41.8 | 62.9 | 25 | 29.7 | 34.9 | 4.85 | 17.1 | 50 | 37.5 | 11.1 | 11.2 | 37.3 | 31.1 | 40.2 | 28.2 | 78.8 | viability at 10 µM (MALME-3M): 15.8%; viability at 10 µM (BT-549): 62.5%; viability at 10 µM (SK-MEL-2): 11.6% |
| FC(F)(F)c1cn(CC2CCNCC2)c2ncnc(Cl)c12 [NUCC-0000381] | 88.5 | 15.1 | 100 | 96.2 | 48.5 | 93.8 | 25.8 | 93.3 | 33.3 | 46.3 | 8.38 | 8.43 | 60.8 | 16.7 | 44.4 | 28.9 | 40.4 | 23.3 | 19.7 | 93.3 | viability at 10 µM (MALME-3M): 101%; viability at 10 µM (BT-549): 103%; viability at 10 µM (SK-MEL-2): 106% |
